Assay results: paper PMC9376960, “Ruthenium(II)–Tris-pyrazolylmethane Complexes Inhibit Cancer Cell Growth by Disrupting Mitochondrial Calcium Homeostasis” (Journal of Medicinal Chemistry, 2022)

What was measured:
HeLa = system: HeLa; set-up: method as in PMID 30740808; details: MTT, 72 h; cited from earlier work
HCT116 (3D) = test: Cytotoxicity in 3D spheroids (colonospheres), Cell Titer-Glo 3D; type: cell-based, human
Experimental: A spontaneous spheroid formation was used to generate colonospheres derived from the HCT116 cell line. The HCT116 cells were seeded on 96-well ultralow attachment plates (1400 cells/well) and cultivated in a tumor sphere-forming medium (DMEM/F12, supplemented with B27 (Invitrogen), BSA, bFGF (10 ng mL^–1), and EGF (20 ng mL^–1)) for 4 days. After the incubation period, colonospheres were treated with Ru complexes for another 3 days. The viability of colonospheres was determined by the Cell Titer-Glo 3D cell viability assay (Promega) according to the manufacturer’s instructions. The reported IC50 values are the average of three independent experiments, each consisting of three replicates per concentration level. Bright-field images of the spheroids were taken as well to determine the effect on the morphology of the spheroids.

MMC-2 = test: MTT assay, NER-deficient cells; type: cell-based, Chinese hamster; details: 72 h
Description: (§1) The human cervical carcinoma HeLa cells and human colorectal carcinoma cells HCT116 were kindly supplied by Professor B. Keppler, University of Vienna (Austria). Human rhabdomyosarcoma RD cells were purchased from the American Type Culture Collection (ATCC, Manassas, VA). Human breast cancer MCF-7 cells, human skin melanoma 518A2 cells, and human MRC5pd30 cells derived from normal lung tissue were purchased from the European Collection of Authenticated Cell Cultures (ECACC) (Salisbury, U.K.). Chinese hamster ovary CHO-K1 cell line (wild type) and its derivative MMC-2 carrying the ERCC3/XPB mutation (NER-deficient) cell line were kindly supplied by Dr. […], Cancer Research Institute, Slovak Academy of Sciences, Bratislava (Slovakia). In vitro antiproliferative activity of Ru complexes was determined by the MTT or, alternatively, SRB assay as already described,[84] after 72 h of incubation of cells with various concentrations of the Ru complex. The reported IC50 values are an average of three independent experiments, each consisting of three replicates per concentration.

MRC5pd30 = system: MRC5pd30; set-up: method as in PMID 30740808; details: MTT, 72 h; cited from earlier work
DNA = system: DNA; set-up: method as in PMID 25888926, PMID 28623355; details: cited from earlier work
HCT116 = system: HCT116; set-up: method as in PMID 30740808; details: MTT, 72 h; cited from earlier work
MCF-7 = system: MCF-7; set-up: method as in PMID 30740808; details: MTT, 72 h; cited from earlier work
CHO-K1 = test: MTT assay, wild-type cells; type: cell-based, Chinese hamster; details: 72 h
Description: as §1

RD = test: MTT antiproliferative assay; type: cell-based, human; details: 72 h, mean ± SD
Experimental: All of the cell lines were cultivated in DMEM medium (high glucose 4.5 g L^–1, PAA, Pasching, Austria) supplemented with gentamycin (50 μg mL^–1, Serva, Heidelberg, Germany) and 10% heat-inactivated fetal bovine serum (PAA). The medium for MRC5pd30 cells was further supplemented by 1% nonessential amino acids (Sigma-Aldrich, Prague, Czech Republic). All cells were cultured as adherent monolayers in a humidified incubator at 37 °C in a 5% CO2 atmosphere and subcultured twice a week with an appropriate plating density. In vitro antiproliferative activity of Ru complexes was determined by the MTT or, alternatively, SRB assay as already described,[84] after 72 h of incubation of cells with various concentrations of the Ru complex. The reported IC50 values are an average of three independent experiments, each consisting of three replicates per concentration.

518A2 = system: 518A2; set-up: method as in PMID 32555811; details: MTT, 72 h; cited from earlier work

N.N.[Cl][Pt][Cl] [cisplatin]
IC50 (HeLa): 14 ± 3 µM | effect on the morphology of 3D spheroids (HCT116 (3D); 20 µM, 72 h, bright-field images): heterogeneous morphology with several dissociated cell clumps | IC50 (HCT116 (3D); Cell Titer-Glo, spheroids, 72 h of treatment): 44.6 ± 1.8 µM | IC50 (MMC-2): 5.5 ± 0.8 µM | IC50 (MRC5pd30): 11.7 ± 0.8 µM | intracellular platinum that reaches the nucleus and binds to DNA (DNA): 2–3% | IC50 (HCT116): 8 ± 1 µM | IC50 (MCF-7): 13 ± 3 µM | IC50 (CHO-K1): 54 ± 6 µM | IC50 (RD): 4.6 ± 0.3 µM | IC50 (518A2): 2.6 ± 0.7 µM
